We go through seven compounds from ChEMBL document CHEMBL2146433, “Melanin concentrating hormone receptor 1 (MCHR1) antagonists-Still a viable approach for obesity treatment?” (Bioorg Med Chem Lett, 2012).

Assay [1] concerns the target T1, Melanin-concentrating hormone receptor 1 (Homo sapiens, UniProt Q99705). As to the kind of experiment: Binding affinity to MCHR1 receptor by cell-based assay.
Assay [2] can be described thus: Displacement of [Phe13, [125I]Tyr19]-MCH from human MCHR1 receptor E4Q/A5T mutant expressed in HEK 293 cell membranes by scintillation counter. The following applies: hek293.
Assay [3] concerns Rattus norvegicus. As to the kind of experiment: Antiobesity activity in obese rat assessed as reduction in body weight at 30 mg/kg, po measured on day 29. The format is functional. The arrangement: scale not given: the % may be the effect or the level left.
In assay [4] the test system is Rattus norvegicus. As to the kind of experiment: Antiobesity activity in obese rat assessed as reduction in body weight at 3 mg/kg, po measured on day 29. The format is functional. The arrangement: scale not given: the % may be the effect or the level left.
Assay [5] addresses T1, Melanin-concentrating hormone receptor 1. As to the kind of experiment: Displacement of [125I]-MCH from human MCHR1 receptor expressed in CHO-K1 cell membranes after 2 hrs by scintillation proximity assay.

T1 sequence (Q99705 whole entry): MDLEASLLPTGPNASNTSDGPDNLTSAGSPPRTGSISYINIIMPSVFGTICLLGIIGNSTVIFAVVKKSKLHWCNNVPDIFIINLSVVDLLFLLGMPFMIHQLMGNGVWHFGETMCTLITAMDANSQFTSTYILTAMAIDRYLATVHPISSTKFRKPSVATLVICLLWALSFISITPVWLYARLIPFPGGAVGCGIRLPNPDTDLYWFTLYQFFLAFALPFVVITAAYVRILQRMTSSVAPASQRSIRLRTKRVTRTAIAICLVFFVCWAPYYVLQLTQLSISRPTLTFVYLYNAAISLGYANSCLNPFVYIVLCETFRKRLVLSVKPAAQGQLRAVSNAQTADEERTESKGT

Compound `COc1ccc(/C=C/C(=O)Nc2ccc3nc(N4CCOCC4)cc(C)c3c2)cc1` yielded an Activity in assay [1] of 50 nM.

The compound `COc1cc(-n2cnc3cc(-c4ccc(Cl)cc4)sc3c2=O)ccc1OC[C@H](O)C1CC1` registered a Ki in assay [2] of 18 nM.

Consider `COc1cc(-n2cnc3cc(-c4ccc(Cl)cc4)sc3c2=O)ccc1OCC1(OC(=O)CN)CC(F)(F)C1`, for which the Activity with Rattus norvegicus [3] and with Rattus norvegicus [4] was 10.2% each time.

`Cc1ccc(/C=C/C(=O)Nc2ccc3nc(N4CCN(C)CC4)cc(C)c3c2)cc1` returned an Activity in assay [1] of 50 nM.

`CN(C)CC1CCc2cc(NC(=O)Nc3ccc(Oc4ccccc4)cc3)ccc2C1` (centres undefined) had an IC50 in assay [5] of 10 nM.

Turning to `COc1cc(-n2cnc3cc(-c4ccc(Cl)cc4)sc3c2=O)ccc1OC[C@H](OP(=O)(O)O)C1CC1` [BMS-830216], the Activity in the assay with Rattus norvegicus [3] and with Rattus norvegicus [4] was 7.8% each time.

In turn, `COc1cc(-n2cnc3cc(-c4ccc(Cl)cc4)sc3c2=O)ccc1OCC1(O)CC(F)(F)C1` yielded a Ki in assay [2] of 10 nM.
